# Measurements reported in patent US9115143B2, “Substituted indole derivatives as gamma secretase modulators” (Janssen Pharmaceuticals, Inc., priority 2011, dated 2015).
# Assays:
# Aβtotal [1] = test: In vivo efficacy B-1a/B-2a: brain soluble Aβtotal in non-transgenic rodents, ELISA; design: species or system mouse; conditions: dose 30 mg/kg oral dosing, brain soluble fraction, untreated animals (Ctrl) set at 100; for response vs control in vivo at 30 mg/kg: Mus musculus, po, 4 h, read-out: Aβtotal (% vs Ctrl)_Mean
# Excerpt: To determine whether acute administration of an Aβ42 lowering agent would reduce Aβ42 levels in vivo, non-transgenic rodents, e.g. mice or rats were used. Animals treated with the Aβ42 lowering agent were examined and compared to those untreated or treated with vehicle and brain levels of soluble Aβ42 and total Aβ were quantitated by standard techniques, for example, using ELISA. Treatment periods varied from hours (h) to days and were adjusted based on the results of the Aβ42 lowering once a time course of onset of effect could be established.
# A typical protocol for measuring Aβ42 lowering in vivo is shown but it is only one of many variations that could be used to optimize the levels of detectable Aβ. For example, Aβ42 lowering compounds were formulated in 20% of Captisol® (a sulfobutyl ether of β-cyclodextrin) in water or 20% hydroxypropyl β cyclodextrin. The Aβ42 lowering agents were administered as a single oral dose or by any acceptable route of administration to overnight fasted animals. After 4 h, the animals were sacrificed and Aβ42 levels were analysed.
# Blood was collected by decapitation and exsanguinations in EDTA-treated collection tubes. Blood was centrifuged at 1900 g for 10 minutes (min) at 4° C. and the plasma recovered and flash frozen for later analysis. The brain was removed from the cranium and hindbrain. The cerebellum was removed and the left and right hemisphere were separated. The left hemisphere was stored at −18° C. for quantitative analysis of test compound levels. The right hemisphere was rinsed with phosphate-buffered saline (PBS) buffer and immediately frozen on dry ice and stored at −80° C. until homogenization for biochemical assays.
# Mouse brains from non-transgenic animals were resuspended in 8 volumes of 0.4% DEA (diethylamine)/50 mM NaCl containing protease inhibitors (Roche-11873580001 or 04693159001) per gram of tissue, e.g. for 0.158 g brain, add 1.264 mL of 0.4% DEA. All samples were homogenized in the FastPrep-24 system (MP Biomedicals) using lysing matrix D (MPBio #6913-100) at 6 m/s for 20 seconds. Homogenates were centrifuged at 20800×g for 5 min and supernatants collected. Supernatants were centrifuged at 221.300×g for 50 min. The resulting high speed supernatants were then transferred to fresh eppendorf tubes. Nine parts of supernatant were neutralized with 1 part 0.5 M Tris-HCl pH 6.8 and used to quantify Aβtotal and Aβ42.
# To quantify the amount of Aβtotal and Aβ42 in the soluble fraction of the brain homogenates, Enzyme-Linked-Immunosorbent-Assays were used. Briefly, the standards (a dilution of synthetic Aβ1-40 and Aβ1-42, Bachem) were prepared in 1.5 mL Eppendorf tube in Ultraculture, with final concentrations ranging from 10000 to 0.3 pg/mL. The samples and standards were co-incubated with HRPO-labelled N-terminal antibody JRF/rAμ/2 for Aβ42 detection and with the biotinylated mid-domain antibody 4G8 for Aβtotal detection. 50 μl of conjugate/sample or conjugate/standards mixtures were then added to the antibody-coated plate (the capture antibodies selectively recognize the C-terminal end of Aβ42, antibody JRF/cAβ42/26, for Aβ42 detection and the N-terminus of AB, antibody JRF/rAβ/2, for Aβtotal detection). The plate was allowed to incubate overnight at 4° C. in order to allow formation of the antibody-amyloid complex. Following this incubation and subsequent wash steps the ELISA for Aβ42 quantification was finished by addition of Quanta Blu fluorogenic peroxidase substrate according to the manufacturer's instructions (Pierce Corp., Rockford, Ill.). A reading was performed after 10 to 15 min (excitation 320 nm/emission 420 nm).
# For Aβtotal detection, a Streptavidine-Peroxidase-Conjugate was added, followed 60 min later by an additional wash step and addition of Quanta Blu fluorogenic peroxidase substrate according to the manufacturer's instructions (Pierce Corp., Rockford, Ill.). A reading was performed after 10 to 15 min (excitation 320 nm/emission 420 nm). […]
# Aβ42 = test: Screening for γ-secretase-modulating activity: Aβ42 in supernatant of SKNBE2 cells carrying hAPP 695 wild type (Alphalisa); type: cell-based, human; conditions: overnight incubation, Alphalisa on supernatant
# Method in brief: (§1)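 Secreted Aβ42 (C-terminal/N-terminal antibody pair) and Aβtotal (N-terminal/mid-region pair) were quantified by AlphaLISA after overnight compound exposure of wild-type hAPP 695 SKNBE2 cells at 37 °C. Values expressed relative to compound-free maximum, with IC50 from nonlinear 4-parameter regression.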
# Aβtotal [2] = test: Screening for γ-secretase-modulating activity: Aβtotal in supernatant of SKNBE2 cells carrying hAPP 695 wild type (Alphalisa); type: cell-based, human; conditions: overnight incubation, Alphalisa on supernatant
# Method in brief: as §1
# [3] = SKNBE2 human neuroblastoma cells carrying hAPP 695 wild type
# [4] = Homo sapiens, SKNBE2, SKNBE2 human neuroblastoma cells carrying hAPP 695 wild type
Structure (SMILES),IC50 (Aβ42; [3]),IC50 (Aβtotal [2]; [3]),IC50 (Aβtotal [2]; [4]),IC50 (Aβ42; [4]),Aβtotal (% vs Ctrl)_Mean (Aβtotal [1]),Aβtotal (% vs Ctrl)_Mean (Aβtotal [1]; 30 mg/kg),response vs control in vivo at 30 mg/kg (Aβtotal [1])
"Cc1cn(-c2ccc3[nH]c(-c4nc5n(n4)CCOC5c4ccc(F)cc4C)cc3c2)cn1 (stereo not drawn) [Compound 39, 8-(4-fluoro-2-methylphenyl)-5,6-dihydro-2-[5-(4-methyl-1H-imidazol-1-yl)-1H-indo-2-yl]-8H-[1,2,4]triazolo[5,1-c][1,4]oxazine]",38 nM,214 nM,,,99 % vs Ctrl,,
"Cc1cc(F)ccc1C1CCCn2cc(-c3cc4cc(C#N)ccc4[nH]3)nc21 (stereo not drawn) [Compound 63, 2-[8-(4-fluoro-2-methylphenyl)-5,6,7,8-tetrahydroimidazo[1,2-a]pyridin-2-yl]-1H-indole-5-carbonitrile]",4470 nM,> 10000 nM,,,,121 % vs Ctrl,
"Cc1cc(F)ccc1C1CCCn2cc(-c3cc4cc(C#N)ccc4[nH]3)nc21 (stereo not drawn) [Compound 64, 2-[8-(4-fluoro-2-methylphenyl)-5,6,7,8-tetrahydroimidazo[1,2-a]pyridin-2-yl]-1H-indole-5-carbonitrile]",68 nM,> 10000 nM,,,,100 % vs Ctrl,
"Cc1cn(-c2ccc3[nH]c(-c4nc5n(n4)CCCC5c4ccc(F)cc4C)cc3n2)cn1 (stereo not drawn) [Compound 65, 8-(4-fluoro-2-methylphenyl)-5,6,7,8-tetrahydro-2-[5-(4-methyl-1H-imidazol-1-yl)-1H-pyrrolo[3,2-b]pyridin-2-yl]-[1,2,4]triazolo[1,5-a]pyridine]",46 nM,,7240 nM,,,,108%
"Cc1cn(-c2cc3cc(-c4nc5n(n4)CCCC5c4ccc(F)cc4C)[nH]c3cn2)cn1 (stereo not drawn) [Compound 71, 8-(4-fluoro-2-methylphenyl)-5,6,7,8-tetrahydro-2-[5-(4-methyl-1H-imidazol-1-yl)-1H-pyrrolo[2,3-c]pyridin-2-yl]-[1,2,4]triazolo[1,5-a]pyridine]",,,> 10000 nM,65 nM,,,115%
"Cc1cn(-c2ccc3[nH]c(-c4nc5n(n4)CCCC5c4ccc(F)cc4C)cc3c2)cn1 (stereo not drawn) [Compound 73, 8-(4-fluoro-2-methylphenyl)-5,6,7,8-tetrahydro-2-[5-(4-methyl-1H-imidazol-1-yl)-1H-indol-2-yl]-[1,2,4]triazolo[1,5-a]pyridine]",,,> 10000 nM,43 nM,,,80%
"Cc1cn(-c2ccc3[nH]c(-c4nc5n(n4)CCCC5c4ccc(F)cc4C)nc3c2)cn1 (stereo not drawn) [Compound 176, 8-(4-fluoro-2-methylphenyl)-5,6,7,8-tetrahydro-2-[5-(4-methyl-1H-imidazol-1-yl)-1H-benzimidazol-2-yl]-[1,2,4]triazolo[1,5-a]pyridine]",89 nM,> 10000 nM,,,,,101%

# Now from value to compound, other results behind:
IC50 (Aβ42; [3]),IC50 (Aβtotal [2]; [3]),IC50 (Aβtotal [2]; [4]),IC50 (Aβ42; [4]),Structure (SMILES),Aβtotal (% vs Ctrl)_Mean (Aβtotal [1]),Aβtotal (% vs Ctrl)_Mean (Aβtotal [1]; 30 mg/kg),response vs control in vivo at 30 mg/kg (Aβtotal [1])
54 nM,,> 10000 nM,,"COc1c(C#N)ccc2[nH]c(-c3cn4c(n3)C(c3ccc(F)cc3C)OCC4)cc12 (stereo not drawn) [Compound 46, 2-[8-(4-fluoro-2-methylphenyl)-5,6-dihydro-8H-imidazo[2,1-c][1,4]oxazin-2-yl]-4-methoxy-1H-indole-5-carbonitrile]",,88 % vs Ctrl,
23 nM,> 10000 nM,,,"COc1c(C#N)ccc2[nH]c(-c3cn4c(n3)C(c3ccc(F)cc3C)OCC4)cc12 (stereo not drawn) [Compound 47, 2-[8-(4-fluoro-2-methylphenyl)-5,6-dihydro-8H-imidazo[2,1-c][1,4]oxazin-2-yl]-4-methoxy-1H-indole-5-carbonitrile]",,117 % vs Ctrl,
,,> 10000 nM,72 nM,"COc1c(C#N)ccc2[nH]c(-c3nc4n(n3)CCOC4c3ccccc3C(F)(F)F)cc12 (stereo not drawn) [Compound 55, 2-[5,6-dihydro-8-[2-(trifluoromethyl)phenyl]-8H-[1,2,4]triazolo[5,1-c][1,4]oxazin-2-yl]-4-methoxy-1H-indole-5-carbonitrile]",,,111%
,,3720 nM,25 nM,"COc1c(C#N)ccc2[nH]c(-c3nc4n(n3)CCCC4c3ccc(F)cc3C)cc12 (stereo not drawn) [Compound 59, 2-[8-(4-fluoro-2-methylphenyl)-5,6,7,8-tetrahydro[1,2,4]triazolo[1,5-a]pyridin-2-yl]-4-methoxy-1H-indole-5-carbonitrile]",,,86%
117 nM,> 10000 nM,,,"Cc1cc(F)ccc1C1CCCn2nc(-c3cc4nc(-c5cnn(C)c5)ccc4[nH]3)nc21 (stereo not drawn) [Compound 69, 8-(4-fluoro-2-methylphenyl)-5,6,7,8-tetrahydro-2-[5-(1-methyl-1H-pyrazol-4-yl)-1H-pyrrolo[3,2-b]pyridin-2-yl]-[1,2,4]triazolo[1,5-a]pyridine]",,,122%
,,> 10000 nM,112 nM,"COc1c(C#N)ccc2[nH]c(-c3cn4c(n3)C(c3ccc(F)cc3C)CCC4)cc12 (stereo not drawn) [Compound 74, 2-[8-(4-fluoro-2-methylphenyl)-5,6,7,8-tetrahydroimidazo[1,2-a]pyridin-2-yl]-4-methoxy-1H-indole-5-carbonitrile]",,,85%
,,> 10000 nM,74 nM,"COc1c(-c2cnn(C)c2)ccc2[nH]c(-c3cn4c(n3)C(c3ccc(F)cc3C)OCC4)cc12 (stereo not drawn) [Compound 96, 8-(4-fluoro-2-methylphenyl)-5,6-dihydro-2-[4-methoxy-5-(1-methyl-1H-pyrazol-4-yl)-1H-indol-2-yl]-8H-imidazo[2,1-c][1,4]oxazine]",,,92%
,,> 10000 nM,78 nM,"Cc1cc(F)ccc1C1OCCn2cc(-c3cc4cc(-c5cnn(C)c5)ccc4[nH]3)nc21 (stereo not drawn) [Compound 99, 8-(4-fluoro-2-methylphenyl)-5,6-dihydro-2-[5-(1-methyl-1H-pyrazol-4-yl)-1H-indol-2-yl]-8H-imidazo[2,1-c][1,4]oxazine]",,,115%
93 nM,,> 10000 nM,,"COc1c(C#N)ccc2[nH]c(-c3nc4n(n3)CCOC4c3ccc(F)cc3C)cc12 (stereo not drawn) [Compound 111, 2-[8-(4-fluoro-2-methylphenyl)-5,6-dihydro-8H-[1,2,4]triazolo[5,1-c][1,4]oxazin-2-yl]-4-methoxy-1H-indole-5-carbonitrile]",,,120%
